Assay results: ChEMBL document CHEMBL1275514, “Surveillance of community-based reservoirs reveals the presence of CTX-M, imported AmpC, and OXA-30 beta-lactamases in urine isolates of Klebsiella pneumoniae and Escherichia coli in a U.S. community” (2008)

Assays:
Assay type in all cases: functional
Klebsiella pneumoniae [1] = test: Antimicrobial activity against CMY-2,CTX-M-14,TEM-2-like beta-lactamase producing Klebsiella pneumoniae isolate CUMCK2 by disk diffusion method
Escherichia coli [2] = test: Antimicrobial activity against CMY-2 beta-lactamase producing Escherichia coli isolate CUMC243 by disk diffusion method
Escherichia coli [3] = test: Antimicrobial activity against CMY-2,CTX-M-14,TEM-2-like beta-lactamase producing Escherichia coli isolate CUMC215 by disk diffusion method
Escherichia coli [4] = test: Antimicrobial activity against CTX-M-14-like, TEM-1-like beta-lactamase producing Escherichia coli isolate CUMC203 by disk diffusion method
Escherichia coli [5] = test: Antimicrobial activity against CTX-M-14-like, TEM-1-like beta-lactamase producing Escherichia coli isolate CUMC204 by disk diffusion method
Escherichia coli [6] = test: Antimicrobial activity against CTX-M-14-like, TEM-1-like beta-lactamase producing Escherichia coli isolate CUMC233 by disk diffusion method
Escherichia coli [7] = test: Antimicrobial activity against CTX-M-14, TEM-1-like beta-lactamase producing Escherichia coli isolate CUMC241 by disk diffusion method
Escherichia coli [8] = test: Antimicrobial activity against CTX-M-14, TEM-1-like beta-lactamase producing Escherichia coli isolate CUMC244 by disk diffusion method
Escherichia coli [9] = test: Antimicrobial activity against CTX-M-14, TEM-1-like beta-lactamase producing Escherichia coli isolate CUMC248 by disk diffusion method
Klebsiella pneumoniae [10] = test: Antimicrobial activity against SHV-12-like, SHV-1-like beta-lactamase producing Klebsiella pneumoniae isolate CUMCK9 by disk diffusion method
Klebsiella pneumoniae [11] = test: Antimicrobial activity against CMY-2,CTX-M-14,TEM-2-like beta-lactamase producing Klebsiella pneumoniae isolate CUMCK2 by disk diffusion method in presence of beta-lactamase inhibitor clavulanic acid
Escherichia coli [12] = test: Antimicrobial activity against CMY-2,CTX-M-14,TEM-2-like beta-lactamase producing Escherichia coli isolate CUMC215 by disk diffusion method in presence of beta-lactamase inhibitor clavulanic acid
Escherichia coli [13] = test: Antimicrobial activity against CMY-2 beta-lactamase producing Escherichia coli isolate CUMC243 by disk diffusion method in presence of beta-lactamase inhibitor clavulanic acid
Escherichia coli [14] = test: Antimicrobial activity against CMY-2 beta-lactamase producing Escherichia coli isolate CUMC181 by disk diffusion method in presence of beta-lactamase inhibitor clavulanic acid
Escherichia coli [15] = test: Antimicrobial activity against CMY-2 beta-lactamase producing Escherichia coli isolate CUMC190 by disk diffusion method in presence of beta-lactamase inhibitor clavulanic acid
Escherichia coli [16] = test: Antimicrobial activity against CMY-2 beta-lactamase producing Escherichia coli isolate CUMC201 by disk diffusion method in presence of beta-lactamase inhibitor clavulanic acid
Escherichia coli [17] = test: Antimicrobial activity against CMY-2 beta-lactamase producing Escherichia coli isolate CUMC214 by disk diffusion method in presence of beta-lactamase inhibitor clavulanic acid
Escherichia coli [18] = test: Antimicrobial activity against CMY-2 beta-lactamase producing Escherichia coli isolate CUMC223 by disk diffusion method in presence of beta-lactamase inhibitor clavulanic acid
Escherichia coli [19] = test: Antimicrobial activity against CMY-2,TEM-2-like beta-lactamase producing Escherichia coli isolate CUMC224 by disk diffusion method in presence of beta-lactamase inhibitor clavulanic acid
Escherichia coli [20] = test: Antimicrobial activity against CMY-2 beta-lactamase producing Escherichia coli isolate CUMC225 by disk diffusion method in presence of beta-lactamase inhibitor clavulanic acid
Escherichia coli [21] = test: Antimicrobial activity against CTX-M-15,OXA-30 beta-lactamase producing Escherichia coli isolate CUMC245 by disk diffusion method in presence of beta-lactamase inhibitor clavulanic acid
Escherichia coli [22] = test: Antimicrobial activity against CTX-M-14, TEM-1 beta-lactamase producing Escherichia coli isolate CUMC174 by disk diffusion method in presence of beta-lactamase inhibitor clavulanic acid
Escherichia coli [23] = test: Antimicrobial activity against CTX-M-14, TEM-1-like beta-lactamase producing Escherichia coli isolate CUMC176 by disk diffusion method in presence of beta-lactamase inhibitor clavulanic acid
Escherichia coli [24] = test: Antimicrobial activity against CTX-M-14, TEM-1-like beta-lactamase producing Escherichia coli isolate CUMC180 by disk diffusion method in presence of beta-lactamase inhibitor clavulanic acid
Escherichia coli [25] = test: Antimicrobial activity against CTX-M-14-like, TEM-1-like beta-lactamase producing Escherichia coli isolate CUMC192 by disk diffusion method in presence of beta-lactamase inhibitor clavulanic acid
Escherichia coli [26] = test: Antimicrobial activity against CTX-M-14-like, TEM-1-like beta-lactamase producing Escherichia coli isolate CUMC203 by disk diffusion method in presence of beta-lactamase inhibitor clavulanic acid
Escherichia coli [27] = test: Antimicrobial activity against CTX-M-14-like, TEM-1-like beta-lactamase producing Escherichia coli isolate CUMC204 by disk diffusion method in presence of beta-lactamase inhibitor clavulanic acid
Escherichia coli [28] = test: Antimicrobial activity against CTX-M-14-like, TEM-1-like beta-lactamase producing Escherichia coli isolate CUMC233 by disk diffusion method in presence of beta-lactamase inhibitor clavulanic acid
Escherichia coli [29] = test: Antimicrobial activity against CTX-M-14, TEM-1-like beta-lactamase producing Escherichia coli isolate CUMC241 by disk diffusion method in presence of beta-lactamase inhibitor clavulanic acid
Escherichia coli [30] = test: Antimicrobial activity against CTX-M-14, TEM-1-like beta-lactamase producing Escherichia coli isolate CUMC244 by disk diffusion method in presence of beta-lactamase inhibitor clavulanic acid
Escherichia coli [31] = test: Antimicrobial activity against CTX-M-14, TEM-1-like beta-lactamase producing Escherichia coli isolate CUMC248 by disk diffusion method in presence of beta-lactamase inhibitor clavulanic acid
Klebsiella pneumoniae [32] = test: Antimicrobial activity against SHV-12-like, SHV-1-like beta-lactamase producing Klebsiella pneumoniae isolate CUMCK9 by disk diffusion method in presence of beta-lactamase inhibitor clavulanic acid
Escherichia coli [33] = test: Antimicrobial activity against CTX-M-14-like, TEM-1-like beta-lactamase producing Escherichia coli isolate CUMC192 by disk diffusion method
Escherichia coli [34] = test: Antimicrobial activity against CTX-M-14, TEM-1-like beta-lactamase producing Escherichia coli isolate CUMC180 by disk diffusion method
Escherichia coli [35] = test: Antimicrobial activity against CTX-M-14, TEM-1-like beta-lactamase producing Escherichia coli isolate CUMC176 by disk diffusion method
Escherichia coli [36] = test: Antimicrobial activity against CTX-M-14, TEM-1 beta-lactamase producing Escherichia coli isolate CUMC174 by disk diffusion method
Escherichia coli [37] = test: Antimicrobial activity against CTX-M-15,OXA-30 beta-lactamase producing Escherichia coli isolate CUMC245 by disk diffusion method
Escherichia coli [38] = test: Antimicrobial activity against CMY-2 beta-lactamase producing Escherichia coli isolate CUMC225 by disk diffusion method
Escherichia coli [39] = test: Antimicrobial activity against CMY-2,TEM-2-like beta-lactamase producing Escherichia coli isolate CUMC224 by disk diffusion method
Escherichia coli [40] = test: Antimicrobial activity against CMY-2 beta-lactamase producing Escherichia coli isolate CUMC223 by disk diffusion method
Escherichia coli [41] = test: Antimicrobial activity against CMY-2 beta-lactamase producing Escherichia coli isolate CUMC214 by disk diffusion method
Escherichia coli [42] = test: Antimicrobial activity against CMY-2 beta-lactamase producing Escherichia coli isolate CUMC201 by disk diffusion method
Escherichia coli [43] = test: Antimicrobial activity against CMY-2 beta-lactamase producing Escherichia coli isolate CUMC190 by disk diffusion method
Escherichia coli [44] = test: Antimicrobial activity against CMY-2 beta-lactamase producing Escherichia coli isolate CUMC181 by disk diffusion method

With CO/N=C(\C(=O)N[C@@H]1C(=O)N2C(C(=O)O)=C(COC(C)=O)CS[C@H]12)c1csc(N)n1 [CEFOTAXIME] the “inhibition zone (IZ)” value (Klebsiella pneumoniae [1]) was 11 mm, the “inhibition zone (IZ)” value (Escherichia coli [2]) was 11 mm and the “inhibition zone (IZ)” value (Escherichia coli [3]) was 7 mm. For the same molecule, the “inhibition zone (IZ)” value (Escherichia coli [4]) was 17 mm, the “inhibition zone (IZ)” value (Escherichia coli [5]) was 15 mm and the “inhibition zone (IZ)” value (Escherichia coli [6]) was 18 mm. For the same molecule, the “inhibition zone (IZ)” value (Escherichia coli [7]) was 13 mm, the “inhibition zone (IZ)” value (Escherichia coli [8]) was 14 mm and the “inhibition zone (IZ)” value (Escherichia coli [9]) was 12 mm. For the same molecule, the “inhibition zone (IZ)” value (Klebsiella pneumoniae [10]) was 18 mm, the “inhibition zone (IZ)” value (Klebsiella pneumoniae [11]) was 16 mm and the “inhibition zone (IZ)” value (Escherichia coli [12]) was 8 mm. The “inhibition zone (IZ)” value (Escherichia coli [13]) was 12 mm, the “inhibition zone (IZ)” value (Escherichia coli [14]) was 13 mm and the “inhibition zone (IZ)” value (Escherichia coli [15]) was 11 mm. The “inhibition zone (IZ)” value (Escherichia coli [16]) was 10 mm, the “inhibition zone (IZ)” value (Escherichia coli [17]) was 12 mm and the “inhibition zone (IZ)” value (Escherichia coli [18]) was 13 mm. The “inhibition zone (IZ)” value (Escherichia coli [19]) was 12 mm, the “inhibition zone (IZ)” value (Escherichia coli [20]) was 11 mm and the “inhibition zone (IZ)” value (Escherichia coli [21]) was 30 mm. The “inhibition zone (IZ)” value (Escherichia coli [22]) was 30 mm, the “inhibition zone (IZ)” value (Escherichia coli [23]) was 31 mm and the “inhibition zone (IZ)” value (Escherichia coli [24]) was 30 mm. The “inhibition zone (IZ)” value (Escherichia coli [25]) was 30 mm, the “inhibition zone (IZ)” value (Escherichia coli [26]) was 32 mm and the “inhibition zone (IZ)” value (Escherichia coli [27]) was 30 mm. The “inhibition zone (IZ)” value (Escherichia coli [28]) was 32 mm, the “inhibition zone (IZ)” value (Escherichia coli [29]) was 30 mm and the “inhibition zone (IZ)” value (Escherichia coli [30]) was 29 mm. For the same molecule, the “inhibition zone (IZ)” value (Escherichia coli [31]) was 28 mm, the “inhibition zone (IZ)” value (Klebsiella pneumoniae [32]) was 32 mm and the “inhibition zone (IZ)” value (Escherichia coli [33]) was 15 mm. For the same molecule, the “inhibition zone (IZ)” value (Escherichia coli [34]) was 17 mm, the “inhibition zone (IZ)” value (Escherichia coli [35]) was 17 mm and the “inhibition zone (IZ)” value (Escherichia coli [36]) was 16 mm. For the same molecule, the “inhibition zone (IZ)” value (Escherichia coli [37]) was 6 mm, the “inhibition zone (IZ)” value (Escherichia coli [38]) was 11 mm and the “inhibition zone (IZ)” value (Escherichia coli [39]) was 15 mm. The “inhibition zone (IZ)” value (Escherichia coli [40]) was 13 mm, the “inhibition zone (IZ)” value (Escherichia coli [41]) was 13 mm and the “inhibition zone (IZ)” value (Escherichia coli [42]) was 12 mm. The “inhibition zone (IZ)” value (Escherichia coli [43]) was 6 mm and the “inhibition zone (IZ)” value (Escherichia coli [44]) was 13 mm.
CC(C)(O/N=C(\C(=O)N[C@@H]1C(=O)N2C(C(=O)[O-])=C(C[n+]3ccccc3)CS[C@H]12)c1csc(N)n1)C(=O)O [CEFTAZIDIME] was tested, and the “inhibition zone (IZ)” value (Klebsiella pneumoniae [1]) was 8 mm, the “inhibition zone (IZ)” value (Escherichia coli [2]) was 7 mm and the “inhibition zone (IZ)” value (Escherichia coli [3]) was 6 mm. For the same molecule, the “inhibition zone (IZ)” value (Escherichia coli [4]) was 28 mm, the “inhibition zone (IZ)” value (Escherichia coli [5]) was 27 mm and the “inhibition zone (IZ)” value (Escherichia coli [6]) was 31 mm. For the same molecule, the “inhibition zone (IZ)” value (Escherichia coli [7]) was 28 mm, the “inhibition zone (IZ)” value (Escherichia coli [8]) was 26 mm and the “inhibition zone (IZ)” value (Escherichia coli [9]) was 25 mm. For the same molecule, the “inhibition zone (IZ)” value (Klebsiella pneumoniae [10]) was 6 mm, the “inhibition zone (IZ)” value (Klebsiella pneumoniae [11]) was 12 mm and the “inhibition zone (IZ)” value (Escherichia coli [12]) was 7 mm. The “inhibition zone (IZ)” value (Escherichia coli [13]) was 12 mm, the “inhibition zone (IZ)” value (Escherichia coli [14]) was 14 mm and the “inhibition zone (IZ)” value (Escherichia coli [15]) was 13 mm. The “inhibition zone (IZ)” value (Escherichia coli [16]) was 12 mm, the “inhibition zone (IZ)” value (Escherichia coli [17]) was 13 mm and the “inhibition zone (IZ)” value (Escherichia coli [18]) was 13 mm. The “inhibition zone (IZ)” value (Escherichia coli [19]) was 13 mm, the “inhibition zone (IZ)” value (Escherichia coli [20]) was 11 mm and the “inhibition zone (IZ)” value (Escherichia coli [21]) was 29 mm. For the same molecule, the “inhibition zone (IZ)” value (Escherichia coli [22]) was 30 mm, the “inhibition zone (IZ)” value (Escherichia coli [23]) was 33 mm and the “inhibition zone (IZ)” value (Escherichia coli [24]) was 31 mm. The “inhibition zone (IZ)” value (Escherichia coli [25]) was 30 mm, the “inhibition zone (IZ)” value (Escherichia coli [26]) was 29 mm and the “inhibition zone (IZ)” value (Escherichia coli [27]) was 30 mm. The “inhibition zone (IZ)” value (Escherichia coli [28]) was 32 mm, the “inhibition zone (IZ)” value (Escherichia coli [29]) was 32 mm and the “inhibition zone (IZ)” value (Escherichia coli [30]) was 29 mm. For the same molecule, the “inhibition zone (IZ)” value (Escherichia coli [31]) was 29 mm, the “inhibition zone (IZ)” value (Klebsiella pneumoniae [32]) was 26 mm and the “inhibition zone (IZ)” value (Escherichia coli [33]) was 28 mm. For the same molecule, the “inhibition zone (IZ)” value (Escherichia coli [34]) was 29 mm, the “inhibition zone (IZ)” value (Escherichia coli [35]) was 30 mm and the “inhibition zone (IZ)” value (Escherichia coli [36]) was 27 mm. The “inhibition zone (IZ)” value (Escherichia coli [37]) was 16 mm, the “inhibition zone (IZ)” value (Escherichia coli [38]) was 6 mm and the “inhibition zone (IZ)” value (Escherichia coli [39]) was 7 mm. For the same molecule, the “inhibition zone (IZ)” value (Escherichia coli [40]) was 6 mm, the “inhibition zone (IZ)” value (Escherichia coli [41]) was 8 mm and the “inhibition zone (IZ)” value (Escherichia coli [42]) was 8 mm. The “inhibition zone (IZ)” value (Escherichia coli [43]) was 8 mm and the “inhibition zone (IZ)” value (Escherichia coli [44]) was 6 mm.
